Reference: PMC9516332 (Frontiers in Oncology, 2022)
Where two headings read alike, the source gives them in different places.

How the values were obtained:
134 cancer cell lines = assay: Cell viability assay (ATPlite, 72 hours), IC50 on cancer cell line panel
[1] = target: panel of 255 wild-type kinases (Homo sapiens, UniProt Q16816); assay: Kinase panel profiling at 1 µmol/L (MSA or IMAP), percentage inhibition; assay type: biochemical; details: kinase PHKG1; 1 µmol/L single concentration; read-out: %-inhibition at 1 µmol/L, PHKG1
[2] = target: panel of 255 wild-type kinases (Homo sapiens, UniProt P06241); assay: as above; assay type: biochemical; details: kinase FYN [isoform a]; 1 µmol/L single concentration; read-out: %-inhibition at 1 µmol/L, FYN [isoform a]
[3] = target: panel of 255 wild-type kinases (Homo sapiens, UniProt Q9H422); assay: as above; assay type: biochemical; details: kinase HIPK3; 1 µmol/L single concentration; read-out: %-inhibition at 1 µmol/L, HIPK3
[4] = target: panel of 255 wild-type kinases (Homo sapiens, UniProt P48729); assay: as above; assay type: biochemical; details: kinase CK1α; 1 µmol/L single concentration; read-out: %-inhibition at 1 µmol/L, CK1α
[5] = target: panel of 255 wild-type kinases (Homo sapiens, UniProt Q13882); assay: as above; assay type: biochemical; details: BRK kinase assay; 1 µmol/L single concentration; read-out: %-inhibition BRK
AP-1060 (ETV6-NTRK3) = assay: Cell viability assay; details: read-out: IC50 in cell proliferation assay

- IC50 (134 cancer cell lines; Homo sapiens, NCI-H82, read-out: IC50 in cell proliferation assay, cell line NCI-H82): 11.1 µM
- IC50 (134 cancer cell lines; Homo sapiens, NCI-H460, read-out: IC50 in cell proliferation assay, NCI-H460 cell line): 7.11 µM
- IC50 (134 cancer cell lines; Homo sapiens, NCI-H661, read-out: IC50 in cell proliferation assay, NCI-H661 cell line): 9.63 µM
- IC50 (134 cancer cell lines; Homo sapiens, NCI-H716, read-out: IC50 in cell proliferation assay, cell line NCI-H716 (FGFR2-COL14A1)): 0.049 µM
- IC50 (134 cancer cell lines; Homo sapiens, NCI-H1650, read-out: IC50 in cell proliferation assay, NCI-H1650 cell line (EGFR exon19del)): 18.1 µM
- IC50 (134 cancer cell lines; Homo sapiens, NCI-H1975, read-out: IC50 in cell proliferation assay, NCI-H1975 cell line (EGFR p.L858R + p.T790M)): 1.49 µM
- IC50 (134 cancer cell lines; Homo sapiens, NCI-H2228, read-out: IC50 in cell proliferation assay, NCI-H2228 cell line (EML4-ALK)): 4.04 µM
- IC50 (134 cancer cell lines; Homo sapiens, OVCAR-3, read-out: IC50 in cell proliferation assay, cell line OVCAR-3): 6.11 µM
- IC50 (134 cancer cell lines; Homo sapiens, PFSK-1, read-out: IC50 in cell proliferation assay, cell line PFSK-1): 0.52 µM
- IC50 (134 cancer cell lines; Homo sapiens, RL95-2, read-out: IC50 in cell proliferation assay, cell line RL95-2 (EGFR p.A289V)): 18.3 µM
- IC50 (134 cancer cell lines; Homo sapiens, RPMI-7951, read-out: IC50 in cell proliferation assay, cell line RPMI-7951 (BRAF p.V600E)): 10.1 µM
- IC50 (134 cancer cell lines; Homo sapiens, RS4-11, read-out: IC50 in cell proliferation assay, cell line RS4;11): 4.25 µM
- IC50 (134 cancer cell lines; Homo sapiens, Rec1, read-out: IC50 in cell proliferation assay, cell line REC-1): 3.14 µM
- IC50 (134 cancer cell lines; Homo sapiens, SHP77, read-out: IC50 in cell proliferation assay, cell line SHP-77): > 31.6 µM
- IC50 (134 cancer cell lines; Homo sapiens, SK-BR-3, read-out: IC50 in cell proliferation assay, cell line SK-BR-3 (ERBB2 amplification)): 0.676 µM
- IC50 (134 cancer cell lines; Homo sapiens, SK-N-AS, read-out: IC50 in cell proliferation assay, cell line SK-N-AS): 0.065 µM
- IC50 (134 cancer cell lines; Homo sapiens, SK-N-FI, read-out: IC50 in cell proliferation assay, cell line SK-N-FI): 3.1 µM
- IC50 (134 cancer cell lines; Homo sapiens, SK-N-MC, read-out: IC50 in cell proliferation assay, cell line SK-N-MC): 2.6 µM
- IC50 (134 cancer cell lines; Homo sapiens, SK-N-SH, read-out: IC50 in cell proliferation assay, cell line SK-N-SH (ALK p.F1174L)): 0.42 µM
- IC50 (134 cancer cell lines; Homo sapiens, SNU-5, read-out: IC50 in cell proliferation assay, cell line SNU-5 (MET amplification)): 13.9 µM
- IC50 (134 cancer cell lines; Homo sapiens, SNU-16, read-out: IC50 in cell proliferation assay, cell line SNU-16 (FGFR2 amplification)): > 31.6 µM
- IC50 (134 cancer cell lines; Homo sapiens, SNU-C2B, read-out: IC50 in cell proliferation assay, cell line SNU-C2B (EGFR p.R165Q)): 7.04 µM
- IC50 (134 cancer cell lines; Homo sapiens, SU-DHL-1, read-out: IC50 in cell proliferation assay, cell line SU-DHL-1 (NPM1-ALK)): 21.2 µM
- IC50 (134 cancer cell lines; Homo sapiens, SU-DHL-6, read-out: IC50 in cell proliferation assay, cell line SU-DHL-6): 1.55 µM
- IC50 (134 cancer cell lines; Homo sapiens, SUP-T1, read-out: IC50 in cell proliferation assay, cell line SUP-T1): 6.02 µM
- IC50 (134 cancer cell lines; Homo sapiens, SW48, read-out: IC50 in cell proliferation assay, cell line SW48 (EGFR p.G719S)): 1.15 µM
- IC50 (134 cancer cell lines; Homo sapiens, SW480, read-out: IC50 in cell proliferation assay, cell line SW480): 8.85 µM
- IC50 (134 cancer cell lines; Homo sapiens, SW626, read-out: IC50 in cell proliferation assay, cell line SW626): 8.63 µM
- IC50 (134 cancer cell lines; Homo sapiens, SW780, read-out: IC50 in cell proliferation assay, cell line SW780 (FGFR3-BAIAP2L1)): 9.85 µM
- IC50 (134 cancer cell lines; Homo sapiens, SW837, read-out: IC50 in cell proliferation assay, cell line SW837): 21.9 µM
- IC50 (134 cancer cell lines; Homo sapiens, SW872, read-out: IC50 in cell proliferation assay, cell line SW872 (BRAF p.V600E)): 18.8 µM
- IC50 (134 cancer cell lines; Homo sapiens, SW900, read-out: IC50 in cell proliferation assay, cell line SW900): 4.43 µM
- IC50 (134 cancer cell lines; Homo sapiens, SW948, read-out: IC50 in cell proliferation assay, cell line SW948): 3.3 µM
- IC50 (134 cancer cell lines; Homo sapiens, SW982, read-out: IC50 in cell proliferation assay, cell line SW982 (BRAF p.V600E)): 22.6 µM
- IC50 (134 cancer cell lines; Homo sapiens, SW-620, read-out: IC50 in cell proliferation assay, cell line SW620): 6.94 µM
- IC50 (134 cancer cell lines; Homo sapiens, T98G, read-out: IC50 in cell proliferation assay, cell line T98G): 7.14 µM
- IC50 (134 cancer cell lines; Homo sapiens, TCC-SUP, read-out: IC50 in cell proliferation assay, cell line TCCSUP): 1.1 µM
- IC50 (134 cancer cell lines; Homo sapiens, THP-1, read-out: IC50 in cell proliferation assay, cell line THP-1): 0.117 µM
- IC50 (134 cancer cell lines; Homo sapiens, U2OS, read-out: IC50 in cell proliferation assay, cell line U2OS): 19.3 µM
- IC50 (134 cancer cell lines; Homo sapiens, U-87 MG, read-out: IC50 in cell proliferation assay, cell line U-87MG ATCC): 17.5 µM
- IC50 (134 cancer cell lines; Homo sapiens, U-118-MG, read-out: IC50 in cell proliferation assay, cell line U-118MG): 16.6 µM
- IC50 (134 cancer cell lines; Homo sapiens, UMUC3, read-out: IC50 in cell proliferation assay, cell line UM-UC-3): 17.1 µM
- IC50 (134 cancer cell lines; Hs766T, read-out: IC50 in cell proliferation assay, Hs 766T cell line): 7.45 µM
- IC50 (134 cancer cell lines; L-82, read-out: IC50 in cell proliferation assay, L-82 cell line (NPM1-ALK)): 20.5 µM
- IC50 (134 cancer cell lines; Rh30, read-out: IC50 in cell proliferation assay, cell line Rh30): 3.91 µM
- IC50 (134 cancer cell lines; read-out: IC50 in cell proliferation assay, 11-18 cell line (EGFR p.L858R)): 15.5 µM
- IC50 (134 cancer cell lines; read-out: IC50 in cell proliferation assay, Hs 852.T cell line): 5.79 µM
- IC50 (134 cancer cell lines; read-out: IC50 in cell proliferation assay, JAR cell line): 23.2 µM
- IC50 (134 cancer cell lines; read-out: IC50 in cell proliferation assay, cell line 5637): 12.8 µM
- IC50 (134 cancer cell lines; read-out: IC50 in cell proliferation assay, cell line A-388): 2.91 µM
- IC50 (134 cancer cell lines; read-out: IC50 in cell proliferation assay, cell line DB): 23 µM
- IC50 (134 cancer cell lines; read-out: IC50 in cell proliferation assay, cell line DEL (NPM1-ALK)): 27.8 µM
- IC50 (134 cancer cell lines; read-out: IC50 in cell proliferation assay, cell line ES-2 (BRAF p.V600E)): > 31.6 µM
- IC50 (134 cancer cell lines; read-out: IC50 in cell proliferation assay, cell line PA-1): 17.6 µM
- IC50 (134 cancer cell lines; read-out: IC50 in cell proliferation assay, cell line PC-3): 22.7 µM
- IC50 (134 cancer cell lines; read-out: IC50 in cell proliferation assay, cell line RD): 1.15 µM
- IC50 (134 cancer cell lines; read-out: IC50 in cell proliferation assay, cell line RKO (BRAF p.V600E)): 11 µM
- IC50 (134 cancer cell lines; read-out: IC50 in cell proliferation assay, cell line RL): 18.9 µM
- IC50 (134 cancer cell lines; read-out: IC50 in cell proliferation assay, cell line RT-4 (FGFR3-TACC3)): 0.12 µM
- IC50 (134 cancer cell lines; read-out: IC50 in cell proliferation assay, cell line SR (NPM1-ALK)): 10.9 µM
- IC50 (134 cancer cell lines; read-out: IC50 in cell proliferation assay, cell line T24): 1.08 µM
- IC50 (134 cancer cell lines; read-out: IC50 in cell proliferation assay, cell line TT (RET p.C634W)): > 31.6 µM
- IC50 (134 cancer cell lines; read-out: IC50 in cell proliferation assay, cell line VA-ES-BJ): 5.92 µM
- inhibition at 1 µM [1]: -1.22%
- inhibition at 1 µM [2]: 1.52%
- inhibition at 1 µM [3]: 7%
- inhibition at 1 µM [4]: -14%
- inhibition at 1 µM [5]: 2.75%
Structure (SMILES): Cc1nc(NC(=O)N2CCC[C@H]2C(N)=O)sc1-c1ccnc(C(C)(C)C(F)(F)F)c1 [alpelisib]
- IC50 (AP-1060 (ETV6-NTRK3)): 1.74 µM
